According to ChEMBL document CHEMBL3112450, “Synthesis and in vitro antitumor evaluation of primary amine substituted quinazoline linked benzimidazole” (Bioorg Med Chem Lett, 2014):

Legend:
Type in all cases: functional
[1] = Cytotoxicity against human EKVX cells assessed as cell growth at 10^-5 M after 48 hrs by SRB assay; settings: read-out: Activity
TK-10 = assay: Cytotoxicity against human TK10 cells assessed as cell growth at 10^-4 M after 48 hrs by SRB assay; settings: TK-10, 48 h, read-out: Activity
[2] = Cytotoxicity against human UO31 cells assessed as cell growth at 10^-4 M after 48 hrs by SRB assay; settings: UO-31, 48 h, read-out: Activity
SN12C = assay: Cytotoxicity against human SN12C cells assessed as cell growth at 10^-4 M after 48 hrs by SRB assay; settings: read-out: Activity
MDA-MB-435 [3] = assay: Cytotoxicity against human MDA-MB-435 cells assessed as cell growth at 10^-7 M after 48 hrs by SRB assay; settings: MDA-MB-435, 48 h, read-out: Activity
Malme-3M [4] = assay: Cytotoxicity against human MALME-3M cells assessed as cell growth at 10^-7 M after 48 hrs by SRB assay; settings: read-out: Activity
NCI-H226 = assay: Cytotoxicity against human NCI-H226 cells assessed as cell growth at 10^-7 M after 48 hrs by SRB assay; settings: NCI-H226, 48 h, read-out: Activity
BT-549 [5] = assay: Cytotoxicity against human BT549 cells assessed as cell growth at 10^-8 M after 48 hrs by SRB assay; settings: BT-549, 48 h, read-out: Activity
MCF7 = assay: Cytotoxicity against human MCF7 cells assessed as cell growth at 10^-8 M after 48 hrs by SRB assay; settings: MCF7, 48 h, read-out: Activity
786-0 [6] = assay: Cytotoxicity against human 786-0 cells assessed as cell growth at 10^-4 M after 48 hrs by SRB assay; settings: 786-0, 48 h, read-out: Activity
[7] = Cytotoxicity against human NCI-ADR-RES cells assessed as cell growth at 10^-4 M after 48 hrs by SRB assay; settings: read-out: Activity
IGROV-1 = assay: Cytotoxicity against human IGROV1 cells assessed as cell growth at 10^-4 M after 48 hrs by SRB assay; settings: IGROV-1, 48 h, read-out: Activity
MDA-MB-435 [8] = assay: Cytotoxicity against human MDA-MB-435 cells assessed as cell growth at 10^-4 M after 48 hrs by SRB assay; settings: MDA-MB-435, 48 h, read-out: Activity
SK-MEL-2 = assay: Cytotoxicity against human SK-MEL-2 cells assessed as cell growth at 10^-4 M after 48 hrs by SRB assay; settings: SK-MEL-2, 48 h, read-out: Activity
SNB-19 = assay: Cytotoxicity against human SNB19 cells assessed as cell growth at 10^-4 M after 48 hrs by SRB assay; settings: SNB-19, 48 h, read-out: Activity
SF-539 = assay: Cytotoxicity against human SF539 cells assessed as cell growth at 10^-4 M after 48 hrs by SRB assay; settings: SF-539, 48 h, read-out: Activity
SW-620 [9] = assay: Cytotoxicity against human SW620 cells assessed as cell growth at 10^-4 M after 48 hrs by SRB assay; settings: SW-620, 48 h, read-out: Activity
HT-29 [10] = assay: Cytotoxicity against human HT-29 cells assessed as cell growth at 10^-4 M after 48 hrs by SRB assay; settings: HT-29, 48 h, read-out: Activity
HCT-116 [11] = assay: Cytotoxicity against human HCT116 cells assessed as cell growth at 10^-4 M after 48 hrs by SRB assay; settings: HCT-116, 48 h, read-out: Activity
COLO 205 [12] = assay: Cytotoxicity against human COLO205 cells assessed as cell growth at 10^-4 M after 48 hrs by SRB assay; settings: COLO 205, 48 h, read-out: Activity
RPMI-8226 [13] = assay: Cytotoxicity against human RPMI8226 cells assessed as cell growth at 10^-4 M after 48 hrs by SRB assay; settings: RPMI-8226, 48 h, read-out: Activity
HL-60(TB) = assay: Cytotoxicity against human HL-60(TB) cells assessed as cell growth at 10^-4 M after 48 hrs by SRB assay; settings: HL-60, 48 h, read-out: Activity
OVCAR-3 [14] = assay: Cytotoxicity against human OVCAR3 cells assessed as cell growth at 10^-8 M after 48 hrs by SRB assay; settings: OVCAR-3, 48 h, read-out: Activity
K562 = assay: Cytotoxicity against human K562 cells assessed as cell growth at 10^-4 M after 48 hrs by SRB assay; settings: K562, 48 h, read-out: Activity
HCT-116 [15] = assay: Cytotoxicity against human HCT116 cells assessed as cell growth at 10^-8 M after 48 hrs by SRB assay; settings: HCT-116, 48 h, read-out: Activity
NCI-H23 = assay: Cytotoxicity against human NCI-H23 cells assessed as cell growth at 10^-8 M after 48 hrs by SRB assay; settings: NCI-H23, 48 h, read-out: Activity
CCRF-CEM = assay: Cytotoxicity against human CCRF-CEM cells assessed as cell growth at 10^-8 M after 48 hrs by SRB assay; settings: read-out: Activity
SW-620 [16] = assay: Cytotoxicity against human SW620 cells after 48 hrs by SRB assay; settings: SW-620, 48 h
786-0 [17] = assay: Cytotoxicity against human 786-0 cells assessed as cell growth at 10^-6 M after 48 hrs by SRB assay; settings: 786-0, 48 h, read-out: Activity
OVCAR-3 [18] = assay: Cytotoxicity against human OVCAR3 cells assessed as cell growth at 10^-6 M after 48 hrs by SRB assay; settings: OVCAR-3, 48 h, read-out: Activity
Malme-3M [19] = assay: Cytotoxicity against human MALME-3M cells assessed as cell growth at 10^-6 M after 48 hrs by SRB assay; settings: read-out: Activity
U-251 = assay: Cytotoxicity against human U251 cells assessed as cell growth at 10^-6 M after 48 hrs by SRB assay; settings: U-251, 48 h, read-out: Activity
HT-29 [20] = assay: Cytotoxicity against human HT-29 cells assessed as cell growth at 10^-6 M after 48 hrs by SRB assay; settings: HT-29, 48 h, read-out: Activity
HCT-15 = assay: Cytotoxicity against human HCT15 cells assessed as cell growth at 10^-6 M after 48 hrs by SRB assay; settings: HCT-15, 48 h, read-out: Activity
COLO 205 [21] = assay: Cytotoxicity against human COLO205 cells assessed as cell growth at 10^-6 M after 48 hrs by SRB assay; settings: COLO 205, 48 h, read-out: Activity
RPMI-8226 [22] = assay: Cytotoxicity against human RPMI8226 cells assessed as cell growth at 10^-6 M after 48 hrs by SRB assay; settings: RPMI-8226, 48 h, read-out: Activity
MOLT-4 = assay: Cytotoxicity against human MOLT4 cells assessed as cell growth at 10^-6 M after 48 hrs by SRB assay; settings: MOLT-4, 48 h, read-out: Activity
BT-549 [23] = assay: Cytotoxicity against human BT549 cells assessed as cell growth at 10^-7 M after 48 hrs by SRB assay; settings: BT-549, 48 h, read-out: Activity
[24] = Cytotoxicity against human UO31 cells assessed as cell growth at 10^-7 M after 48 hrs by SRB assay; settings: UO-31, 48 h, read-out: Activity
A498 = assay: Cytotoxicity against human A498 cells assessed as cell growth at 10^-7 M after 48 hrs by SRB assay; settings: A498, 48 h, read-out: Activity

**Q.** For `C=CCn1c(C)nc2ccc(Nc3nc(Nc4ncccn4)nc4ccccc34)cc21`, which growth at 10 µM [1] is on record?
**A.** Its growth at 10 µM is 87.2%.

**Q.** For `C=CCn1c(C)nc2ccc(Nc3nc(NCCO)nc4ccccc34)cc21`, which growth at 10 µM [1] is on record?
**A.** The growth at 10 µM was 95.5%.

**Q.** For `C=CCn1c(C)nc2ccc(Nc3nc(Nc4ccc5nc(C)n(CC=C)c5c4)c4ccccc4n3)cc21`, which growth at 100 µM (TK-10) is on record?
**A.** The growth at 100 µM was -49%.

**Q.** What about the growth at 100 µM [2] of the same molecule?
**A.** Its growth at 100 µM is -46%.

**Q.** What about the growth at 100 µM (SN12C) of the same molecule?
**A.** Its growth at 100 µM is -50%.

**Q.** What about the growth at 0.1 µM (MDA-MB-435 [3]) of the same molecule?
**A.** The growth at 0.1 µM was 98%.

**Q.** What about the growth at 0.1 µM (Malme-3M [4]) of the same molecule?
**A.** Its growth at 0.1 µM is 92%.

**Q.** And the growth at 0.1 µM (NCI-H226)?
**A.** Its growth at 0.1 µM is 86%.

**Q.** And the growth at 0.01 µM (BT-549 [5])?
**A.** Its growth at 0.01 µM is 99%.

**Q.** What about the growth at 0.01 µM (MCF7) of the same molecule?
**A.** The growth at 0.01 µM was 92%.

**Q.** What about the growth at 100 µM (786-0 [6]) of the same molecule?
**A.** Its growth at 100 µM is -18%.

**Q.** And the growth at 100 µM [7]?
**A.** The growth at 100 µM was -18%.

**Q.** What about the growth at 100 µM (IGROV-1) of the same molecule?
**A.** Its growth at 100 µM is -25%.

**Q.** And the growth at 100 µM (MDA-MB-435 [8])?
**A.** The growth at 100 µM was -5%.

**Q.** What about the growth at 100 µM (SK-MEL-2) of the same molecule?
**A.** The growth at 100 µM was -25%.

**Q.** And the growth at 100 µM (SNB-19)?
**A.** The growth at 100 µM was -34%.

**Q.** And the growth at 100 µM (SF-539)?
**A.** Its growth at 100 µM is -61%.

**Q.** And the growth at 100 µM (SW-620 [9])?
**A.** The growth at 100 µM was -17%.

**Q.** And the growth at 100 µM (HT-29 [10])?
**A.** Its growth at 100 µM is -16%.

**Q.** And the growth at 100 µM (HCT-116 [11])?
**A.** Its growth at 100 µM is 1%.

**Q.** And the growth at 100 µM (COLO 205 [12])?
**A.** The growth at 100 µM was -18%.

**Q.** What about the growth at 100 µM (RPMI-8226 [13]) of the same molecule?
**A.** The growth at 100 µM was 5%.

**Q.** And the growth at 100 µM (HL-60(TB))?
**A.** The growth at 100 µM was -32%.

**Q.** What about the growth at 0.01 µM (OVCAR-3 [14]) of the same molecule?
**A.** The growth at 0.01 µM was 99%.

**Q.** What about the growth at 100 µM (K562) of the same molecule?
**A.** The growth at 100 µM was 1%.

**Q.** What about the growth at 0.01 µM (HCT-116 [15]) of the same molecule?
**A.** Its growth at 0.01 µM is 108%.

**Q.** And the growth at 0.01 µM (NCI-H23)?
**A.** The growth at 0.01 µM was 96%.

**Q.** What about the growth at 0.01 µM (CCRF-CEM) of the same molecule?
**A.** Its growth at 0.01 µM is 97%.

**Q.** And the GI50 (SW-620 [16])?
**A.** The GI50 was 1.5 µM.

**Q.** And the TGI (SW-620 [16])?
**A.** The TGI was 2.94 µM.

**Q.** What about the growth at 1 µM (786-0 [17]) of the same molecule?
**A.** The growth at 1 µM was 92%.

**Q.** What about the growth at 1 µM (OVCAR-3 [18]) of the same molecule?
**A.** The growth at 1 µM was 94%.

**Q.** What about the growth at 1 µM (Malme-3M [19]) of the same molecule?
**A.** Its growth at 1 µM is 98%.

**Q.** And the growth at 1 µM (U-251)?
**A.** The growth at 1 µM was 89%.

**Q.** What about the growth at 1 µM (HT-29 [20]) of the same molecule?
**A.** Its growth at 1 µM is 101%.

**Q.** And the growth at 1 µM (HCT-15)?
**A.** The growth at 1 µM was 91%.

**Q.** And the growth at 1 µM (COLO 205 [21])?
**A.** Its growth at 1 µM is 78%.

**Q.** And the growth at 1 µM (RPMI-8226 [22])?
**A.** The growth at 1 µM was 83%.

**Q.** And the growth at 1 µM (MOLT-4)?
**A.** Its growth at 1 µM is 73%.

**Q.** What about the growth at 0.1 µM (BT-549 [23]) of the same molecule?
**A.** Its growth at 0.1 µM is 95%.

**Q.** And the growth at 0.1 µM [24]?
**A.** The growth at 0.1 µM was 80%.

**Q.** What about the growth at 0.1 µM (A498) of the same molecule?
**A.** Its growth at 0.1 µM is 64%.
